In patent publication US11596622B2, “Mazindol treatment for heroin dependence and substance use disorder” (NLS Pharmaceutics AG, priority 2017, dated 2023):

Test system: Sprague-Dawley rats
Experiment: Naloxone precipitated withdrawal syndrome of heroin
Assay type: in vivo
Settings: for Abdominal constrictions score (Abd C) / Abnormal posture score (Ab P) / Chromodacryorrhea score (Chr) / Diarrhea score (Diarr) / Erection or ejaculation score (Er Ej) / Escape attempts score (Esc A) / Facial fasciculation or teeth chattering score (F F T C) / Global Score / Irritability score (Irrit) / Profuse salivation score (Pr Sal) / Ptosis score (Ptos) / Swallowing movements score (Sw M) / Weight loss score (W Los) / Wet dog shakes score (W D S): mean
Method: The abrupt cessation of chronic opiate use results in a well characterized withdrawal syndrome with symptoms that include pain sensitivity, dysphoria, irritability, restlessness, insomnia, diarrhea and hyperventilation. In the present model, the naloxone-precipitated withdrawal syndrome is measured in rodents. Animals are chronically treated with a drug, e.g. morphine or heroin. Opiate withdrawal syndrome is elicited by an acute injection of the opiate antagonist Naloxone.
The effect of mazindol on heroin withdrawal syndrome elicited by naloxone was examined in Sprague-Dawley rats using a method similar to the one used by Jiang et al. (10),
Animals were subdivided into two groups. One group received heroin two i.p. injections/day for 12 consecutive days and a single injection on the 13th day (total: 25 injections) as exposed in Table 3 group received saline instead of heroin following the same protocol.
On day 13, animals received treatments and were tested according to the following time schedule: • T=0: i.p. injection of heroin (15 mg/kg) or vehicle. • T=2.5 h: animals individually placed in a transparent Plexiglas observation boxes (40×40×40 cm). • T=3.5 h: i.p. injection of treatment (see below). • T=4 h: i.p. injection of naloxone (5 mg/kg), start of test: observation of withdrawal symptoms as indicated in Table 4. • T=5 h: end of test, animals placed back into their home cages.
Animals received the following treatments at T 3.5 h (i.e. 30 min before injection of naloxone and observation of symptoms): • 1) Animals treated with saline during the intoxication period (days 1-12) and at T0 on day 13: • Saline group (N=8): saline (0.9% NaCl). • 2) Animals treated with […] during the intoxication period (days 1-12) and at T0 on day 13: • Hero group (N=14): saline (0.9% NaCl). • Amph 1 group (N=4): D-amphetamine (1 mg/kg). • Maz 0.125 group (N=5): mazindol (0.125 mg/kg). • Maz 0.25 group (N=6): mazindol (0.25 mg/kg). • Maz 0.5 group (N=6): mazindol (0.5 mg/kg). • Maz 1 group (N=6): mazindol (1 mg/kg). • Maz 2 group (N=5): mazindol (2 mg/kg).
A weighting factor was ascribed for each sign from which a score was calculated.
Examples: • Body weight before naloxone injection=241 g; after naloxone injection=236 g: • Weight loss score=2=100×(241−236)/241 • Number of escape attempts=8: • Score for escape attempts=2 • Profuse salivation present: • Score for profuse salivation
A global withdrawal score was then calculated: • Global score=the sum of the scores

[1] = Maz 0.125: heroin-treated rats, mazindol 0.125 mg/kg i.p. 30 min before naloxone 5 mg/kg
[2] = Maz 0.25: heroin-treated rats, mazindol 0.25 mg/kg i.p. 30 min before naloxone 5 mg/kg
[3] = Maz 0.5: heroin-treated rats, mazindol 0.5 mg/kg i.p. 30 min before naloxone 5 mg/kg
[4] = Maz 1: heroin-treated rats, mazindol 1 mg/kg i.p. 30 min before naloxone 5 mg/kg
[5] = Maz 2: heroin-treated rats, mazindol 2 mg/kg i.p. 30 min before naloxone 5 mg/kg

OC1(c2ccc(Cl)cc2)c2ccccc2C2=NCCN21 (centres unmarked) [Mazindol, 5-(4-chlorophenyl)-2,5-dihydro-3 H-imadazo[2,1-a]isoindol-5-ol]
Abdominal constrictions score (Abd C) [1]: 2.8
Abnormal posture score (Ab P) [1]: 0.0
Chromodacryorrhea score (Chr) [1]: 2.0
Diarrhea score (Diarr) [1]: 0.8
Erection or ejaculation score (Er Ej) [1]: 0.0
Escape attempts score (Esc A) [1]: 1.0
Facial fasciculation or teeth chattering score (F F T C) [1]: 1.6
Global Score [1]: 13.2
Irritability score (Irrit) [1]: 0.0
Profuse salivation score (Pr Sal) [1]: 0.0
Ptosis score (Ptos) [1]: 0.0
Swallowing movements score (Sw M) [1]: 1.2
Weight loss score (W Los) [1]: 1.0
Wet dog shakes score (W D S) [1]: 2.8
Abdominal constrictions score (Abd C) [2]: 0.0
Abnormal posture score (Ab P) [2]: 0.0
Chromodacryorrhea score (Chr) [2]: 0.8
Diarrhea score (Diarr) [2]: 1.0
Erection or ejaculation score (Er Ej) [2]: 0.0
Escape attempts score (Esc A) [2]: 0.7
Facial fasciculation or teeth chattering score (F F T C) [2]: 2.0
Global Score [2]: 8.3
Irritability score (Irrit) [2]: 0.0
Profuse salivation score (Pr Sal) [2]: 0.0
Ptosis score (Ptos) [2]: 0.0
Swallowing movements score (Sw M) [2]: 1.0
Weight loss score (W Los) [2]: 1.2
Wet dog shakes score (W D S) [2]: 1.7
Abdominal constrictions score (Abd C) [3]: 0.0
Abnormal posture score (Ab P) [3]: 0.0
Chromodacryorrhea score (Chr) [3]: 0.0
Diarrhea score (Diarr) [3]: 1.0
Erection or ejaculation score (Er Ej) [3]: 0.0
Escape attempts score (Esc A) [3]: 1.7
Facial fasciculation or teeth chattering score (F F T C) [3]: 2.0
Global Score [3]: 9.7
Irritability score (Irrit) [3]: 0.0
Profuse salivation score (Pr Sal) [3]: 0.0
Ptosis score (Ptos) [3]: 0.0
Swallowing movements score (Sw M) [3]: 0.3
Weight loss score (W Los) [3]: 1.7
Wet dog shakes score (W D S) [3]: 3.0
Abdominal constrictions score (Abd C) [4]: 0.0
Abnormal posture score (Ab P) [4]: 0.0
Chromodacryorrhea score (Chr) [4]: 1.7
Diarrhea score (Diarr) [4]: 1.7
Erection or ejaculation score (Er Ej) [4]: 0.5
Escape attempts score (Esc A) [4]: 2.5
Facial fasciculation or teeth chattering score (F F T C) [4]: 2.0
Global Score [4]: 14.0
Irritability score (Irrit) [4]: 0.0
Profuse salivation score (Pr Sal) [4]: 1.2
Ptosis score (Ptos) [4]: 0.0
Swallowing movements score (Sw M) [4]: 0.3
Weight loss score (W Los) [4]: 3.2
Wet dog shakes score (W D S) [4]: 1.0
Abdominal constrictions score (Abd C) [5]: 0.0
Abnormal posture score (Ab P) [5]: 0.6
Chromodacryorrhea score (Chr) [5]: 1.0
Diarrhea score (Diarr) [5]: 2.0
Erection or ejaculation score (Er Ej) [5]: 0.0
Escape attempts score (Esc A) [5]: 1.6
Facial fasciculation or teeth chattering score (F F T C) [5]: 0.4
Global Score [5]: 10.4
Irritability score (Irrit) [5]: 0.0
Profuse salivation score (Pr Sal) [5]: 1.4
Ptosis score (Ptos) [5]: 0.0
Swallowing movements score (Sw M) [5]: 0.0
Weight loss score (W Los) [5]: 3.0
Wet dog shakes score (W D S) [5]: 0.4
effect on the score for escape attempt (mazindol 2 mg/kg): increased
effect on the scores for weight loss and diarrhea (mazindol 0.125-2 mg/kg): Did not significantly reduce
reduction of the global score (FIG. 4) (mazindol 0.125-2 mg/kg): significant at all doses except 0.125 mg/kg
reduction of the score for facial fasciculation or teeth chattering (FIG. 6) (mazindol 0.125-2 mg/kg): significant at 2 mg/kg
reduction of the score for profuse salivation (FIG. 6) (mazindol 0.125-2 mg/kg): significant at all doses except 2 mg/kg
reduction of the score for wet dog shake (FIG. 5) (mazindol 0.125-2 mg/kg): significant effect at 1 and 2 mg/kg
effect on naloxone precipitated withdrawal symptoms of heroin (mazindol, significant at 0.25, 0.5, 1 and 2 mg/kg, but not at 0.125 mg/kg): decreased the naloxone precipitated withdrawal symptoms of heroin
